tested on: not given; experiment: not given; conditions: not given

Compound	melting point
CCNC(=O)c1ccc(-n2nnc(C(=O)NC3CC3)c2CN2CCOCC2)cc1 [Example 128, N-cyclopropyl-1-{4-[(ethylamino)carbonyl]phenyl}-5-(morpholin-4-ylmethyl)-1H-1,2,3-triazole-4-carboxamide]	234 °C (dec.)
CCNC(=O)c1ccc(-n2nnc(C(=O)NC3CC3)c2CO)c(O)c1 [Example 317, N-cyclopropyl-1-{4-[(ethylamino)carbonyl]-2-hydroxyphenyl}-5-(hydroxymethyl)-1H-1,2,3-triazole-4-carboxamide]	185 °C
CCCc1c(C(=O)NC2CC2)nnn1-c1ccc(C(=O)NCC)cc1O [Example 315, N-cyclopropyl-1-{4-[(ethylamino)carbonyl]-2-hydroxyphenyl}-5-propyl-1H-1,2,3-triazole-4-carboxamide]	203 °C
CCNC(=O)c1ccc(-n2nnc(C(=O)NC3CC3)c2CCO)cc1 [Example 114, N-cyclopropyl-1-{4-[(ethylamino)carbonyl]phenyl}-5-(2-hydroxyethyl)-1H-1,2,3-triazole-4-carboxamide]	156 °C
C=Cc1c(C(=O)NC2CC2)nnn1-c1ccc(C(=O)NCC)cc1 [Example 115, N-cyclopropyl-1-{4-[(ethylamino)carbonyl]phenyl}-5-vinyl-1H-1,2,3-triazole-4-carboxamide]	162 °C
CCNC(=O)c1ccc(-n2nnc(C(=O)NC3CC3)c2CN2CCCC2)cc1 [Example 127, N-cyclopropyl-1-{4-[(ethylamino)carbonyl]phenyl}-5-(pyrrolidin-1-ylmethyl)-1H-1,2,3-triazole-4-carboxamide]	164 °C
CCNC(=O)c1ccc(-n2nnc(C(=O)NC3CC3)c2CNCc2ccccc2)cc1 [Example 126, 5-[(benzylamino)methyl]-N-cyclopropyl-1-{4-[(ethylamino)carbonyl]phenyl}-1H-1,2,3-triazole-4-carboxamide]	153 °C
CCNC(=O)c1ccc(-n2nnc(C(=O)NC3CC3)c2CCCCCF)cc1 [Example 111, N-cyclopropyl-1-{4-[(ethylamino)carbonyl]phenyl}-5-(5-fluoropentyl)-1H-1,2,3-triazole-4-carboxamide]	150.3 °C
CCNC(=O)c1ccc(-n2nnc(C(=O)NC3CC3)c2COCc2ccccc2)c(OCc2ccccc2)c1 [Example 316, 1-{2-(benzyloxy)-4-[(ethylamino)carbonyl]phenyl}-5-[(benzyloxy)methyl]-N-cyclopropyl-1H-1,2,3-triazole-4-carboxamide]	132 °C

target: T1, human PAR-1 (Homo sapiens, UniProt P25116); experiment: Evaluation of PAR-1 antagonistic action by intracellular calcium concentration variation assay (FLIPR); format: cell-based; conditions: human PAR-1-expressing CHO cells, agonist peptide SFLLRN-NH2 final concentration 0.3 nM, Fluo-3AM
T1 construct: expressed in transfected cells; host or cells: CHO-K1 (transformant flag/trn/CHO-K1)
T1 sequence (P25116 22-425): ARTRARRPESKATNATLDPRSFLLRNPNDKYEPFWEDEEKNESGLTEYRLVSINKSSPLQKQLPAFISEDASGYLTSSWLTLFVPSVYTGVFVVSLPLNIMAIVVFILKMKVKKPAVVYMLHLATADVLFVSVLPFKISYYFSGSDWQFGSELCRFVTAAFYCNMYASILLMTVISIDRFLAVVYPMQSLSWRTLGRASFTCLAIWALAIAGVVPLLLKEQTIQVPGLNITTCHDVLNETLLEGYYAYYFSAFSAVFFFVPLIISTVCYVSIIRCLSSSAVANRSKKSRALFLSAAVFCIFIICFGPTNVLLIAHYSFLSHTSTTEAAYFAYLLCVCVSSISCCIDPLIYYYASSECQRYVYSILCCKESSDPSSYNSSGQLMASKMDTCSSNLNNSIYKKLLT
Method: Evaluation of PAR-1 Antagonistic Action of Compound by Intracellular Calcium Concentration Variation Assay
Human PAR-1-expressing cells was plated at 3×10^4 cells/well on a 96 well clear bottom plate (Corning 3904 type) and cultured for 16-24 hr. The medium was removed from the wells of the plate, measurement buffer (50 μL, 115 mM NaCl, 5.4 mM KCl, 1.8 mM CaCl2, 0.8 mM MgCl2, 13.8 mM D-glucose, 0.1% BSA, 20 mM HEPES, pH 7.4) containing 2.5 μg/mL of Fluo-3AM (manufactured by Dojindo Laboratories), 0.08% Pluronic F-127 and 2.5 mM Probenecid was added to the cells and the mixture was reacted at 37° C. for 1 hr. The cells were washed twice with the measurement buffer. After addition of the measurement buffer (100 μL), a measurement buffer (50 μL) containing a test compound was added, and the mixture was stood still for 10 min. The plate was moved to a fluorometry image-plate reader (FLIPR-1, manufactured by Molecular Devices). […] The intracellular calcium concentration was measured by FLIPR.

Compound	IC50 [µM]
CCNC(=O)c1ccc(-n2nnc(C(=O)NC3CC3)c2CCCCCF)cc1 [Example 111, N-cyclopropyl-1-{4-[(ethylamino)carbonyl]phenyl}-5-(5-fluoropentyl)-1H-1,2,3-triazole-4-carboxamide]	1.6
CCNC(=O)c1ccc(-n2nnc(C(=O)NC3CC3)c2CCCc2ccccc2)cc1 [Example 100, N-cyclopropyl-1-{4-[(ethylamino)carbonyl]phenyl}-5-(3-phenylpropyl)-1H-1,2,3-triazole-4-carboxamide]	0.7
CCCc1c(C(=O)NC2CC2)nnn1-c1ccc(NC(=O)COC)cc1 [Example 19, N-cyclopropyl-1-{4-[(methoxyacetyl)amino]phenyl}-5-propyl-1H-1,2,3-triazole-4-carboxamide]	0.75
CCCc1c(C(=O)NCC2CCCO2)nnn1-c1ccc(C(=O)NCC)cc1 (stereo not shown) [Example 82, 1-{4-[(ethylamino)carbonyl]phenyl}-5-propyl-N-(tetrahydrofuran-2-ylmethyl)-1H-1,2,3-triazole-4-carboxamide]	1.9
CCNC(=O)c1ccc(-n2nnc(C(=O)NC3CC3)c2COCc2ccccc2)cc1 [Example 94, 5-[(benzyloxy)methyl]-N-cyclopropyl-1-{4-[(ethylamino)carbonyl]phenyl}-1H-1,2,3-triazole-4-carboxamide]	1.7
CCNC(=O)c1ccc(-n2cc(C(=O)NC3CC3)nn2)c(OCCCc2ccccc2)c1 [Example 133, N-cyclopropyl-1-{4-[(ethylamino)carbonyl]-2-(3-phenylpropoxy)phenyl}-1H-1,2,3-triazole-4-carboxamide]	0.27
CCCc1c(C(=O)NCc2cccc(F)c2)nnn1-c1ccc(C(=O)NCC)cc1 [Example 88, 1-{4-[(ethylamino)carbonyl]phenyl}-N-(3-fluorobenzyl)-5-propyl-1H-1,2,3-triazole-4-carboxamide]	0.72
CCCc1c(C(=O)NC2CC2)nnn1-c1ccc(C(=O)NC2CC2)cc1 [Example 53, N-cyclopropyl-1-{4-[(cyclopropylamino)carbonyl]phenyl}-5-propyl-1H-1,2,3-triazole-4-carboxamide]	3.4
CCCc1c(C(=O)NC2CC2)nnn1-c1ccc(C(=O)NCC)cc1 [Example 43, N-cyclopropyl-1-{4-[(ethylamino)carbonyl]phenyl}-5-propyl-1H-1,2,3-triazole-4-carboxamide]	1.5
CCCc1c(C(=O)NCc2ccccn2)nnn1-c1ccc(C(=O)NCC)cc1 [Example 84, 1-{4-[(ethylamino)carbonyl]phenyl}-5-propyl-N-(pyridin-2-ylmethyl)-1H-1,2,3-triazole-4-carboxamide]	1.3
CCNC(=O)c1ccc(-n2nnc(C(=O)NC3CC3)c2COc2ccc(F)cc2)cc1 [Example 123, N-cyclopropyl-1-{4-[(ethylamino)carbonyl]phenyl}-5-[(4-fluorophenoxy)methyl]-1H-1,2,3-triazole-4-carboxamide]	0.98
CCNC(=O)c1ccc(-n2nnc(C(=O)NC3CC3)c2CCC(C)C)cc1 [Example 97, N-cyclopropyl-1-{4-[(ethylamino)carbonyl]phenyl}-5-(3-methylbutyl)-1H-1,2,3-triazole-4-carboxamide]	1.6
CCCc1c(C(=O)NC2CC2)nnn1-c1ccc(NC(=O)NCC)cc1 [Example 27, N-cyclopropyl-1-(4-{[(ethylamino)carbonyl]amino}phenyl)-5-propyl-1H-1,2,3-triazole-4-carboxamide]	0.37
CCNC(=O)c1ccc(-n2nnc(C(=O)NC3CC3)c2CCc2ccccc2)cc1 [Example 98, N-cyclopropyl-1-{4-[(ethylamino)carbonyl]phenyl}-5-(2-phenylethyl)-1H-1,2,3-triazole-4-carboxamide]	0.5
CCNC(=O)c1ccc(-n2nnc(C(=O)NC3CC3)c2-c2ccccc2)cc1 [Example 105, N-cyclopropyl-1-{4-[(ethylamino)carbonyl]phenyl}-5-phenyl-1H-1,2,3-triazole-4-carboxamide]	2.7
CCNC(=O)c1ccc(-n2nnc(C(=O)NC3CC3)c2COc2cccc(Cl)n2)cc1 [Example 118, 5-{[(6-chloropyridin-2-yl)oxy]methyl}-N-cyclopropyl-1-{4-[(ethylamino)carbonyl]phenyl}-1H-1,2,3-triazole-4-carboxamide]	1.4
C=CCCc1c(C(=O)NC2CC2)nnn1-c1ccc(NC(=O)NCC)cc1 [Example 41, 5-(3-buten-1-yl)-N-cyclopropyl-1-(4-{[(ethylamino)carbonyl]amino}phenyl)-1H-1,2,3-triazole-4-carboxamide]	0.63
CCCc1c(C(=O)NCc2cnc(C)cn2)nnn1-c1ccc(C(=O)NCC)cc1 [Example 83, 1-{4-[(ethylamino)carbonyl]phenyl}-N-[(5-methylpyrazin-2-yl)methyl]-5-propyl-1H-1,2,3-triazole-4-carboxamide]	3.6
CCNC(=O)c1ccc(-n2nnc(C(=O)NC3CC3)c2CCCF)cc1 [Example 109, N-cyclopropyl-1-{4-[(ethylamino)carbonyl]phenyl}-5-(3-fluoropropyl)-1H-1,2,3-triazole-4-carboxamide]	3.4

— patent US7803822B2, “Triazole derivative and use thereof” (Takeda Pharmaceutical Company Limited, priority 2005, dated 2010)
